Laboratory results: patent US11746354B2, “Homology dependent repair genome editing” (Inari Agriculture Technology, Inc., priority 2019, dated 2023)

Tested on: maize (Zea mays) r1-colored1 gene
Experiment: HDR editing of an endogenous gene in maize protoplasts (RNP + dsDNA donor template, MiSeq sequencing)
Type: cell-based
Parameters: unit not given here
Settings: 5 μM compound, 0.1% DMSO, B104 maize protoplasts, 48 hours at 26 degrees Celsius in the dark, average of triplicate samples; for Hypoxia Avg. (HDR): hypoxic conditions; for Normoxia Avg. (HDR): normoxic conditions
Protocol: This example describes a second set of experiments which investigated the effects of the 81 small molecules previously identified in the “traffic light” screen (Example 1) on HDR efficiency in editing an endogenous gene, the maize (Zea mays) r1-colored1 gene with partial genomic sequence SEQ ID NO: 5. A ribonucleoprotein (RNP) was prepared with a guide RNA designed to edit the promoter located at positions 313-333 of SEQ ID NO:5. A donor template was provided as a dsDNA for HDR repair. The experiments were carried out with protoplasts produced from etiolated leaves of B104 maize grown in the dark for 11 days. The protoplasts were co-transfected with the RNP and donor template. Transfected cells were incubated 48 hours at 26 degrees Celsius in the dark under either normoxic or hypoxic conditions with the indicated negative controls, positive controls, and small molecules and then harvested. The negative controls comprised cells transfected with the RNP only (no donor template). DMSO controls comprised the RNP and donor template and DMSO at a final concentration of 0.5% by volume DMSO. The positive control was a mixture of KU-0060648 (CAS No. 881375-00-4; Fischer Scientific, Waltham, Mass., USA), STL127705 (7-[2-(3,4-dimethoxyphenyl)ethyl]amino-3-(3-fluorophenyl)pyrimido[4,5-d]pyrimidine-2,4(1H,3H)-dione); Vitas-M, Champaign, Ill., USA), NU7441 (CAS No. 503468-95-9; Fischer Scientific Waltham, Mass., USA), and SCR7 pyrazine (CAS No. 14892-97-8; Tocris, Minneapolis, Minn., USA) (all at a stock concentration of 5 mM in DMSO) that was provided to the protoplasts at a final concentration of each of the four compounds of 5 μM. Certain positive control compounds have been reported to increase CRISPR-mediated HDR (Robert et al. 2015; Chu et al., 2015). All of the tested small molecules were also provided to the protoplasts at a final concentration of 5 μM of the compound and a final DMSO concentration of 0.1% by volume. Genomic DNA was isolated using KAPA Pure Bead capture (Kapa Biosystem) and the isolated gDNA was used as the template for a PCR with PHUSION FLASH (ThermoFisher). Samples were cleaned with KAPA Pure Bead capture and Illumina libraries were prepared and sequenced on MiSeq.

SMILES: CN(C)NC(=O)CCC(=O)O [Daminozide]
- Hypoxia Avg. (HDR): 0.48
- Normoxia Avg. (HDR): 4.57

SMILES: O=C1N=C(NCc2cccs2)S/C1=C\c1ccc2ncccc2c1 [Ro 3306]
- Hypoxia Avg. (HDR): 4.91
- Normoxia Avg. (HDR): 1.64

SMILES: Nc1nc(Cl)nc2c1ncn2[C@@H]1O[C@H](CO)[C@@H](O)[C@H]1O [2-Chloroadenosine]
- Hypoxia Avg. (HDR): 5.00
- Normoxia Avg. (HDR): 2.45

SMILES: Cc1ccc(C(=O)N(CCCN)[C@@H](c2[nH]c3cc(Cl)ccc3c(=O)[n+]2Cc2ccccc2)C(C)C)cc1 [Ispinesib]
- Hypoxia Avg. (HDR): 4.04
- Normoxia Avg. (HDR): 3.36

SMILES: Cc1ccc(C(=O)N(CCCN)[C@@H](c2oc3cc(Cl)ccc3c(=O)c2Cc2ccccc2)C(C)C)cc1.Cl [SB 743921 Hydrochloride]
- Hypoxia Avg. (HDR): 2.97
- Normoxia Avg. (HDR): 4.76

SMILES: c1ccc(-c2ccc(CNc3nc(-c4ccccn4)nnc3-c3ccccc3)cc2)cc1 [ML 228]
- Hypoxia Avg. (HDR): 4.49
- Normoxia Avg. (HDR): 0.46

SMILES: CC(=O)NCCNc1cc(Cl)nn2c(-c3cccc(S(=O)(=O)N(C)C)c3)c(C)nc12 [MI 14]
- Hypoxia Avg. (HDR): 7.75
- Normoxia Avg. (HDR): 0.37

SMILES: CSc1nc(-c2ccc(F)cc2)c(-c2ccnc(NC(C)c3ccccc3)c2)[nH]1 (stereo not drawn) [ML 3403]
- Hypoxia Avg. (HDR): 4.36
- Normoxia Avg. (HDR): 1.47

SMILES: CC(C)(C)c1ccc(S(=O)(=O)NCc2ccc(C(=O)Nc3cccnc3)cc2)cc1 [STF 31]
- Hypoxia Avg. (HDR): 5.00
- Normoxia Avg. (HDR): 0.40

SMILES: CC(=O)[C@H]1CC[C@H]2[C@@H]3CC[C@@H]4C[C@H](O)CC[C@]4(C)[C@H]3CC[C@]12C [Pregnanolone]
- Hypoxia Avg. (HDR): 2.52
- Normoxia Avg. (HDR): 4.43

SMILES: CC(C)Cn1c(=O)n(C)c(=O)c2nc[nH]c21 [IBMX]
- Hypoxia Avg. (HDR): 4.23
- Normoxia Avg. (HDR): 3.05

SMILES: Cc1oc(-c2ccccc2)nc1CCOc1ccc(CC2SC(=O)NC2=O)c2sccc12 (stereo not drawn) [Edaglitazone]
- Hypoxia Avg. (HDR): 6.28
- Normoxia Avg. (HDR): 3.56

SMILES: O=S(=O)(NCCCCCCc1ccccc1)c1cccc2c(Cl)cccc12 [SC-9]
- Hypoxia Avg. (HDR): 5.11
- Normoxia Avg. (HDR): 2.67

SMILES: CN(CCOc1ccc(CC2SC(=O)NC2=O)cc1)c1ccccn1 (stereo not drawn) [Rosiglitazone]
- Hypoxia Avg. (HDR): 4.97
- Normoxia Avg. (HDR): 3.20

SMILES: Nc1nccc(-c2ccc3noc(-c4ccc(Cl)cc4)c3c2)n1 [PIM-1 Inhibitor 2]
- Hypoxia Avg. (HDR): 5.19
- Normoxia Avg. (HDR): 1.37
